Results published in patent publication US9522914B2, “Azole derivative” (TAISHO PHARMACEUTICAL CO., LTD, priority 2011, dated 2016).

Target: Human V1b receptor (Homo sapiens (Human), UniProt P47901)
Assay: Binding Test for V1b Receptor ([3H]AVP, crude membrane preparation of 293FT cells)
Conditions: inhibition of [3H]AVP binding (0.4 to 1 nmol/L), room temperature, 60 minutes
Protocol: Binding Test for V1b Receptor
Human V1b receptor was transiently expressed in 293FT cells (Invitrogen). The cells were collected and then homogenated in a 15 mmol/L tris-hydrochloric acid buffer (pH 7.4 and containing 2 mmol/L magnesium chloride, 0.3 mmol/L ethylenediaminetetracetic acid, and 1 mmol/L glycol ether diaminetetraacetic acid). The resulting homogenate was centrifuged at 50,000×g at 4° C. for 20 minutes. The precipitate was resuspended in a 75 mmol/L tris-hydrochloric acid buffer (pH 7.4 and containing 12.5 mmol/L magnesium chloride, 0.3 mmol/L ethylenediaminetetracetic acid, 1 mmol/L glycol ether diaminetetraacetic acid, and 250 mmol/L sucrose) to give a crude membrane preparation, which was stored at −80° C. until the binding test was initiated. In the binding test, the crude membrane preparation was diluted with a 50 mmol/L tris-hydrochloric acid buffer (pH 7.4 and containing 10 mmol/L magnesium chloride and 0.1% bovine serum albumin) and mixed with each test compound and [^3H]AVP (final concentration: 0.4 to 1 nmol/L), followed by incubation at room temperature for 60 minutes. The test compound was serially diluted with DMSO so that it would have final concentrations of 0.01 nmol/L to 1 μmol/L at the time of mixing. After the incubation, the mixture was suction filtered through a GF/C filter that was preliminarily impregnated with 0.3% polyethyleneimine. The GF/C filter was dried and after adding a scintillator, the residual radioactivity on the filter was measured using TopCount (PerkinElmer Inc.). The radioactivity in the presence of unlabeled AVP at […] was defined as 0%, and the radioactivity in the absence of unlabeled AVP was defined as 100%. A dose-response curve was plotted from radio activities in the presence of a test compound at various concentrations, and the 50% inhibitory concentration (IC50 value) of the test compound was calculated.

Chain of Human V1b receptor (P47901 whole entry): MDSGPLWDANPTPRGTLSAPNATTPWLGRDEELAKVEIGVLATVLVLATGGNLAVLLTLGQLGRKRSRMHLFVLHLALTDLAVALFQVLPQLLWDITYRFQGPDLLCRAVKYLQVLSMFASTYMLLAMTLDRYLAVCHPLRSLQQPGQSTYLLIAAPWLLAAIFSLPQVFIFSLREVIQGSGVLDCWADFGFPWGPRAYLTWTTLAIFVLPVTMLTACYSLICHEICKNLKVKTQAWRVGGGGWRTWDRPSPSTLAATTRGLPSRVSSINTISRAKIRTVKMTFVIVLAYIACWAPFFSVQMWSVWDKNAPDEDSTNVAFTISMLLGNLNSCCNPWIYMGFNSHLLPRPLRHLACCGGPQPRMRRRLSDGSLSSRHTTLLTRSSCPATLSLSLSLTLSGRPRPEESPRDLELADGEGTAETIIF

SMILES	IC50 [µM]
CC(C)NC(=O)Cn1cc(-c2ccc(CCN3CCOCC3)nc2)nc1-c1cccc(Cl)c1 [Example A-30, 2-[2-(3-chlorophenyl)-4-{6-[2-(morpholin-4-yl)ethyl]pyridin-3-yl}-1H-imidazol-1-yl]-N-(propan-2-yl)acetamide]	0.021
CCN(CC)CCc1ccc(-c2cn(CC(=O)NC(C)C)c(-c3ccc(F)c(OC)c3)n2)cc1 [Example A-31, 2-[4-{4-[2-(diethylamino)ethyl]phenyl}-2-(4-fluoro-3-methoxyphenyl)-1H-imidazol-1-yl]-N-(propan-2-yl)acetamide]	0.01 to 0.1
CCN(CCOC)CCc1ccc(-c2cn(CC(=O)NC(C)C)c(-c3ccc(F)c(OC)c3)n2)cc1 [Example A-32, 2-[4-(4-{2-[ethyl(2-methoxyethyl)amino]ethyl}phenyl)-2-(4-fluoro-3-methoxyphenyl)-1H-imidazol-1-yl]-N-(propan-2-yl)acetamide]	0.1 to 1
CC(C)NC(=O)Cn1cc(-c2ccc(OCCN3CCCCC3)cc2)nc1-c1cccc(Cl)c1 [Example A-33, 2-[2-(3-chlorophenyl)-4-{4-[2-(piperidin-1-yl)ethoxy]phenyl}-1H-imidazol-1-yl]-N-(propan-2-yl)acetamide]	0.1 to 1
CC(C)NC(=O)Cn1cc(-c2cccc(OCCN3CCCCC3)c2)nc1-c1cccc(Cl)c1 [Example A-34, 2-[2-(3-chlorophenyl)-4-{3-[2-(piperidin-1-yl)ethoxy]phenyl}-1H-imidazol-1-yl]-N-(propan-2-yl)acetamide]	0.1 to 1
CC(C)NC(=O)Cn1cc(-c2cccc(OCCCN3CCCCC3)c2)nc1-c1cccc(Cl)c1 [Example A-35, 2-[2-(3-chlorophenyl)-4-{3-[3-(piperidin-1-yl)propoxy]phenyl}-1H-imidazol-1-yl]-N-(propan-2-yl)acetamide]	0.1 to 1
COc1cccc(-c2nc(-c3ccc(CCN4CCOCC4)cc3)c(C)n2CC(=O)NC(C)C)c1 [Example A-36, 2-[2-(3-methoxyphenyl)-5-methyl-4-{4-[2-(morpholin-4-yl)ethyl]phenyl}-1H-imidazol-1-yl]-N-(propan-2-yl)acetamide]	0.02
COc1cccc(-c2nc(-c3ccc(CCN4CCCCC4)cc3)cn2CC(=O)NC(C)C)c1 [Example A-37, 2-[2-(3-methoxyphenyl)-4-{4-[2-(piperidin-1-yl)ethyl]phenyl}-1H-imidazol-1-yl]-N-(propan-2-yl)acetamide]	0.01 to 0.1
COc1cccc(-c2nc(-c3ccc(CCN4CCOCC4)cc3)cn2CC(=O)NC(C)C)c1 [Example A-38, 2-[2-(3-methoxyphenyl)-4-{4-[2-(morpholin-4-yl)ethyl]phenyl}-1H-imidazol-1-yl]-N-(propan-2-yl)acetamide]	0.01
CC(C)NC(=O)Cn1cc(-c2ccc(CCN3CCOCC3)cc2)nc1-c1ccc(F)c(Cl)c1 [Example A-39, 2-[2-(3-chloro-4-fluorophenyl)-4-{4-[2-(morpholin-4-yl)ethyl]phenyl}-1H-imidazol-1-yl]-N-(propan-2-yl)acetamide]	0.001
COc1cncc(-c2nc(-c3ccc(CCN4CCOCC4)cc3)cn2CC(=O)NC(C)C)c1 [Example A-40, 2-[2-(5-methoxypyridin-3-yl)-4-{4-[2-(morpholin-4-yl)ethyl]phenyl}-1H-imidazol-1-yl]-N-(propan-2-yl)acetamide]	0.01 to 0.1
COc1cc(-c2nc(-c3ccc(CCN4CCOCC4)cc3)cn2CC(=O)NC(C)C)ccn1 [Example A-41, 2-[2-(2-methoxypyridin-4-yl)-4-{4-[2-(morpholin-4-yl)ethyl]phenyl}-1H-imidazol-1-yl]-N-(propan-2-yl)acetamide]	0.1 to 1
COc1cccc(-c2nc(-c3ccc(CCN4C5CCC4COC5)cc3)cn2CC(=O)NC(C)C)c1 [Example A-42, 2-[2-(3-methoxyphenyl)-4-{4-[2-(3-oxa-8-azabicyclo[3.2.1]oct-8-yl)ethyl]phenyl}-1H-imidazol-1-yl]-N-(propan-2-yl)acetamide]	0.0063
CC(C)NC(=O)Cn1cc(-c2ccc(CCN3CCOCC3)cc2F)nc1-c1cccc(Cl)c1 [Example A-43, 2-[2-(3-chlorophenyl)-4-{2-fluoro-4-[2-(morpholin-4-yl)ethyl]phenyl}-1H-imidazol-1-yl]-N-(propan-2-yl)acetamide]	0.00049
CC(C)NC(=O)Cn1cc(-c2ccc(CC(C)N3CCOCC3)cc2)nc1-c1cccc(Cl)c1 (centres unmarked) [Example A-44, 2-[2-(3-chlorophenyl)-4-{4-[2-(morpholin-4-yl)propyl]phenyl}-1H-imidazol-1-yl]-N-(propan-2-yl)acetamide]	0.00016
CC(C)NC(=O)Cn1cc(-n2ccc(CCN3CCOCC3)cc2=O)nc1-c1cccc(Cl)c1 [Example A-45, 2-[2-(3-chlorophenyl)-4-{4-[2-(morpholin-4-yl)ethyl]-2-oxopyridin-1(2H)-yl}-1H-imidazol-1-yl]-N-(propan-2-yl)acetamide]	0.034
CC(C)NC(=O)Cn1cc(N2CCN(CCN3CCOCC3)CC2=O)nc1-c1cccc(Cl)c1 [Example A-46, 2-[2-(3-chlorophenyl)-4-{4-[2-(morpholin-4-yl)ethyl]-2-oxopiperazin-1-yl}-1H-imidazol-1-yl]-N-(propan-2-yl)acetamide]	0.1 to 1
CC(C)NC(=O)Cn1cc(C(=O)NC2CCC(N3CCOCC3)CC2)nc1-c1cccc(Cl)c1 (centres unmarked) [Example A-47, 2-(3-chlorophenyl)-N-[4-(morpholin-4-yl)cyclohexyl]-1-[2-oxo-2-(propan-2-ylamino)ethyl]-1H-imidazole-4-carboxamide]	0.1 to 1
CC(C)NC(=O)Cn1cc(C(=O)N(C)C2CCC(N3CCOCC3)CC2)nc1-c1cccc(Cl)c1 (centres unmarked) [Example A-48, 2-(3-chlorophenyl)-N-methyl-N-[4-(morpholin-4-yl)cyclohexyl]-1-[2-oxo-2-(propan-2-ylamino)ethyl]-1H-imidazole-4-carboxamide]	0.1 to 1
CC(C)NC(=O)Cn1cc(C(=O)N2CCC(CCN3CCOCC3)C2)nc1-c1cccc(Cl)c1 (centres unmarked) [Example A-49, 2-[2-(3-chlorophenyl)-4-({3-[2-(morpholin-4-yl)ethyl]pyrrolidin-1-yl}carbonyl)-1H-imidazol-1-yl]-N-(propan-2-yl)acetamide]	0.1 to 1
CC(C)NC(=O)Cn1nc(-c2ccc(CCN3C4CCC3COC4)cc2)nc1-c1cccc(Cl)c1 [Example B-01, 2-[5-(3-chlorophenyl)-3-{4-[2-(3-oxa-8-azabicyclo[3.2.1]oct-8-yl)ethyl]phenyl}-1H-1,2,4-triazol-1-yl]-N-(propan-2-yl)acetamide]	0.0014
CC(C)NC(=O)Cn1nc(-c2ccc(CN3CCN(C)CC3)cc2)nc1-c1cccc(Cl)c1 [Example B-03, 2-[5-(3-chlorophenyl)-3-{4-[(4-methylpiperazin-1-yl)methyl]phenyl}-1H-1,2,4-triazol-1-yl]-N-(propan-2-yl)acetamide]	0.1 to 1
CC(C)NC(=O)Cn1nc(-c2ccc(CCN3C4CCC3COC4)cn2)nc1-c1cccc(Cl)c1 [Example B-04, 2-[5-(3-chlorophenyl)-3-{5-[2-(3-oxa-8-azabicyclo[3.2.1]oct-8-yl)ethyl]pyridin-2-yl}-1H-1,2,4-triazol-1-yl]-N-(propan-2-yl)acetamide]	0.0074
COc1cccc(-c2nc(-c3ccc(CCN4C5CCC4COC5)cn3)nn2CC(=O)NC(C)C)c1 [Example B-05, 2-[5-(3-methoxyphenyl)-3-{5-[2-(3-oxa-8-azabicyclo[3.2.1]oct-8-yl)ethyl]pyridin-2-yl}-1H-1,2,4-triazol-1-yl]-N-(propan-2-yl)acetamide]	0.011
COc1cc(-c2nc(-c3ccc(CCN4C5CCC4COC5)cn3)nn2CC(=O)NC(C)C)ccc1F [Example B-06, 2-[5-(4-fluoro-3-methoxyphenyl)-3-{5-[2-(3-oxa-8-azabicyclo[3.2.1]oct-8-yl)ethyl]pyridin-2-yl}-1H-1,2,4-triazol-1-yl]-N-(propan-2-yl)acetamide]	0.0033
COc1cccc(-c2nc(-c3ccc(CCN4C5CCC4COC5)cn3)nn2CC(=O)NC(C)(C)C)c1 [Example B-07, N-tert-butyl-2-[5-(3-methoxyphenyl)-3-{5-[2-(3-oxa-8-azabicyclo[3.2.1]oct-8-yl)ethyl]pyridin-2-yl}-1H-1,2,4-triazol-1-yl]acetamide]	0.0043
CC(C)NC(=O)Cn1nc(-c2ccc(CCN3C4CCC3COC4)cn2)nc1-c1ccc(F)c(Cl)c1 [Example B-08, 2-[5-(3-chloro-4-fluorophenyl)-3-{5-[2-(3-oxa-8-azabicyclo[3.2.1]oct-8-yl)ethyl]pyridin-2-yl}-1H-1,2,4-triazol-1-yl]-N-(propan-2-yl)acetamide]	0.0028
CC(C)(C)NC(=O)Cn1nc(-c2ccc(CCN3C4CCC3COC4)cn2)nc1-c1cccc(Cl)c1 [Example B-09, N-tert-butyl-2-[5-(3-chlorophenyl)-3-{5-[2-(3-oxa-8-azabicyclo[3.2.1]oct-8-yl)ethyl]pyridin-2-yl}-1H-1,2,4-triazol-1-yl]acetamide]	0.0022
CC(C)NC(=O)Cn1nc(-c2ccc(CCN3CCOCC3)cn2)nc1-c1cccc(Cl)c1 [Example B-10, 2-[5-(3-chlorophenyl)-3-{5-[2-(morpholin-4-yl)ethyl]pyridin-2-yl}-1H-1,2,4-triazol-1-yl]-N-(propan-2-yl)acetamide]	0.012
